Results as given in PubChem BioAssay AID1963874 (Molecular Pharmacology Branch, DTP, NCI, 2024).

Test system: 253994-281-T-J1-PDC KRAS-mutant spheroids with HUVEC/MSC, viability
Test: Anticancer human tumor 253994-281-T-J1-PDC patient-derived colorectal carcinoma cell line growth inhibition [KRAS2]
Conditions: for IC50: curve of first compound; for viability, T/C: stronger effect = lower value
Summary of the method: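 Combination screen of spheroid viability in tumor-cell co-cultures with endothelial (HUVEC) and mesenchymal stem cell stroma. Each agent was tested in half-log dilutions, topping at clinical Cmax or at 10 microM without a known Cmax.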

[1] = second compound 0.1 µM, first compound 0.01 µM
[2] = second compound 0.1 µM, first compound 0.0316 µM
[3] = second compound 0.1 µM, first compound 0.1 µM
[4] = second compound 0.1 µM, first compound 0.316 µM
[5] = second compound 0.1 µM, first compound 1 µM
[6] = second compound 0.1 µM, first compound 3.16 µM
[7] = second compound 0.316 µM, first compound 0.01 µM
[8] = second compound 0.316 µM, first compound 0.0316 µM
[9] = second compound 0.316 µM, first compound 0.1 µM
[10] = second compound 0.316 µM, first compound 0.316 µM
[11] = second compound 0.316 µM, first compound 1 µM
[12] = second compound 0.316 µM, first compound 3.16 µM
[13] = second compound 1 µM, first compound 0.01 µM
[14] = second compound 1 µM, first compound 0.0316 µM
[15] = second compound 1 µM, first compound 0.1 µM
[16] = second compound 1 µM, first compound 0.316 µM
[17] = second compound 1 µM, first compound 1 µM
[18] = second compound 1 µM, first compound 3.16 µM
[19] = second compound 3.16 µM, first compound 0.01 µM
[20] = second compound 3.16 µM, first compound 0.0316 µM
[21] = second compound 3.16 µM, first compound 0.1 µM
[22] = second compound 3.16 µM, first compound 0.316 µM
[23] = second compound 3.16 µM, first compound 1 µM
[24] = second compound 3.16 µM, first compound 3.16 µM
[25] = second compound 10 µM, first compound 0.01 µM
[26] = second compound 10 µM, first compound 0.0316 µM
[27] = second compound 10 µM, first compound 0.1 µM
[28] = second compound 10 µM, first compound 0.316 µM
[29] = second compound 10 µM, first compound 1 µM
[30] = second compound 10 µM, first compound 3.16 µM
[31] = second compound 0.1 µM, first compound 10 µM
[32] = second compound 0.316 µM, first compound 10 µM
[33] = second compound 1 µM, first compound 10 µM
[34] = second compound 3.16 µM, first compound 10 µM
[35] = second compound 10 µM, first compound 10 µM
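Also: spheroids exposed to agents for seven days before readout.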
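For viability, T/C in this document: percent of DMSO vehicle control viability.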

| SMILES | IC50 (second compound 0.1 µM) | IC50 (second compound 0.316 µM) | IC50 (second compound 1 µM) | IC50 (second compound 3.16 µM) | IC50 (second compound 10 µM) | viability, T/C [2] | viability, T/C [3] | viability, T/C [4] | viability, T/C [5] | viability, T/C [6] | viability, T/C [8] | viability, T/C [9] | viability, T/C [10] | viability, T/C [11] | viability, T/C [14] | viability, T/C [15] | viability, T/C [20] | viability, T/C [21] | viability, T/C [26] | viability, T/C [27] | further results |
| --- | --- | --- | --- | --- | --- | --- | --- | --- | --- | --- | --- | --- | --- | --- | --- | --- | --- | --- | --- | --- | --- |
| CC1COCCN1c1cc(-c2ccnn2C)c2ccnc(-c3ccn[nH]3)c2n1 (stereo not given) + CC1OCC2(CCN(c3cnc(Sc4ccnc(N)c4Cl)c(N)n3)CC2)C1N | 0.28 µM | 0.141 µM | 0.116 µM | 0.0497 µM | < 0.01 µM | 81.8% | 62.9% | 44% | 47% | 53.1% | 83% | 55.4% | 33.3% | 36.4% | 70.4% | 52.8% | 58.9% | 35.8% | 53.4% | 25.1% | viability, T/C [1]: 87%; viability, T/C [7]: 87.5%; viability, T/C [12]: 43.6%; viability, T/C [13]: 75.2%; viability, T/C [16]: 30.9%; viability, T/C [17]: 27.6%; viability, T/C [18]: 38%; viability, T/C [19]: 59.5%; viability, T/C [22]: 24.1%; viability, T/C [23]: 24.3%; viability, T/C [24]: 28.2%; viability, T/C [25]: 43%; viability, T/C [28]: 16.7%; viability, T/C [29]: 18.9%; viability, T/C [30]: 23.6% |
| CCNC(=O)CC1N=C(c2ccc(Cl)cc2)c2cc(OC)ccc2-n2c(C)nnc21 (stereo not given) + CC1OCC2(CCN(c3cnc(Sc4ccnc(N)c4Cl)c(N)n3)CC2)C1N | > 10 µM | > 10 µM | 3.86 µM | 0.648 µM | 0.0637 µM | 90.4% | 100% | 86.5% | 82% | 74.2% | 85.2% | 81.3% | 75.5% | 65% | 80% | 79.9% | 61.5% | 78% | 52.8% | 47.6% | viability, T/C [31]: 67%; viability, T/C [12]: 74%; viability, T/C [32]: 65%; viability, T/C [16]: 79%; viability, T/C [17]: 64.1%; viability, T/C [18]: 54.6%; viability, T/C [33]: 35.1%; viability, T/C [22]: 61.5%; viability, T/C [23]: 40.9%; viability, T/C [24]: 34.9%; viability, T/C [34]: 23.1%; viability, T/C [28]: 43.5%; viability, T/C [29]: 36.4%; viability, T/C [30]: 26.6%; viability, T/C [35]: 16.5% |
| Cn1nccc1Nc1nccc(-c2cc3c(s2)C(C)(C)N(CCN2CCOCC2)C3=O)n1 + CC1OCC2(CCN(c3cnc(Sc4ccnc(N)c4Cl)c(N)n3)CC2)C1N | 1.46 µM | 0.745 µM | 0.28 µM | 0.11 µM | < 0.0316 µM | 81.1% | 82.9% | 74.9% | 59% | 32.3% | 77% | 79.2% | 63.1% | 45.6% | 68.3% | 64.6% | 60.8% | 50.2% | 39.8% | 28.4% | viability, T/C [31]: 18.9%; viability, T/C [12]: 26%; viability, T/C [32]: 17.9%; viability, T/C [16]: 48.3%; viability, T/C [17]: 22.5%; viability, T/C [18]: 13.2%; viability, T/C [33]: 15%; viability, T/C [22]: 34.8%; viability, T/C [23]: 15.3%; viability, T/C [24]: 10%; viability, T/C [34]: 8.2%; viability, T/C [28]: 15.4%; viability, T/C [29]: 8.1%; viability, T/C [30]: 4.83%; viability, T/C [35]: 6.14% |
| CC(=O)OC12COC1CC(O)C1(C)C(=O)C(O)C3=C(C)C(OC(=O)C(O)C(NC(=O)OC(C)(C)C)c4ccccc4)CC(O)(C(OC(=O)c4ccccc4)C21)C3(C)C (stereo not given) + CNCc1ccccc1-c1csc(C(C)Nc2nc(C)nc3cc(OC)c(OC)cc23)c1 | 0.0178 µM | 0.0129 µM | 0.0275 µM | < 0.01 µM | < 0.01 µM | 31.9% | 26.6% | 24.7% | 27.1% | 25.2% | 30.1% | 23.1% | 24% | 26% | 46.6% | 26.6% | 45.6% | 5.64% | 0.19% | 0.16% | viability, T/C [1]: 68.3%; viability, T/C [7]: 55.8%; viability, T/C [12]: 23.6%; viability, T/C [13]: 74.8%; viability, T/C [16]: 25.6%; viability, T/C [17]: 24.4%; viability, T/C [18]: 27%; viability, T/C [19]: 0.31%; viability, T/C [22]: 0.12%; viability, T/C [23]: 6.77%; viability, T/C [24]: 27.2%; viability, T/C [25]: 0.17%; viability, T/C [28]: 0.15%; viability, T/C [29]: 0.17%; viability, T/C [30]: 0.21% |
| CN(C)C/C=C/C(=O)Nc1cc2c(Nc3ccc(F)c(Cl)c3)ncnc2cc1O[C@H]1CCOC1 + CNCc1ccccc1-c1csc(C(C)Nc2nc(C)nc3cc(OC)c(OC)cc23)c1 | > 0.1 µM | > 0.1 µM | > 0.1 µM | 0.00236 µM | < 0.000316 µM | 83.4% | 54.7% | – | – | – | 67.2% | 51% | – | – | 60.5% | 62.1% | 68.7% | 34.4% | 0.33% | 0.24% | viability, T/C (second compound 0.1 µM, first compound 0.000316 µM): 99.3%; viability, T/C (second compound 0.1 µM, first compound 0.001 µM): 91.9%; viability, T/C (second compound 0.1 µM, first compound 0.00316 µM): 80.3%; viability, T/C [1]: 74.4%; viability, T/C (second compound 0.316 µM, first compound 0.000316 µM): 81.7%; viability, T/C (second compound 0.316 µM, first compound 0.001 µM): 78.1%; viability, T/C (second compound 0.316 µM, first compound 0.00316 µM): 81.3%; viability, T/C [7]: 69%; viability, T/C (second compound 1 µM, first compound 0.000316 µM): 83.2%; viability, T/C (second compound 1 µM, first compound 0.001 µM): 83%; viability, T/C (second compound 1 µM, first compound 0.00316 µM): 60.4%; viability, T/C [13]: 64.9%; viability, T/C (second compound 3.16 µM, first compound 0.000316 µM): 93.9%; viability, T/C (second compound 3.16 µM, first compound 0.001 µM): 97.6%; viability, T/C (second compound 3.16 µM, first compound 0.00316 µM): 33.2%; viability, T/C [19]: 0.82%; viability, T/C (second compound 10 µM, first compound 0.000316 µM): 0.18%; viability, T/C (second compound 10 µM, first compound 0.001 µM): 0.2%; viability, T/C (second compound 10 µM, first compound 0.00316 µM): 0.17%; viability, T/C [25]: 0.26% |
| O=C(c1cc(Cc2n[nH]c(=O)c3ccccc23)ccc1F)N1CCN(C(=O)C2CC2)CC1 + CNCc1ccccc1-c1csc(C(C)Nc2nc(C)nc3cc(OC)c(OC)cc23)c1 | > 10 µM | > 10 µM | > 10 µM | < 0.0316 µM | < 0.0316 µM | 101% | 85.3% | 99.8% | 94.3% | 95.2% | 103% | 98.5% | 90.5% | 92.7% | 96.4% | 119% | 19.2% | 45% | 0.17% | 0.16% | viability, T/C [31]: 96.2%; viability, T/C [12]: 99.5%; viability, T/C [32]: 97.5%; viability, T/C [16]: 93.8%; viability, T/C [17]: 82.9%; viability, T/C [18]: 75.7%; viability, T/C [33]: 78.2%; viability, T/C [22]: 12.3%; viability, T/C [23]: 35.3%; viability, T/C [24]: 16.5%; viability, T/C [34]: 11%; viability, T/C [28]: 0.17%; viability, T/C [29]: 0.19%; viability, T/C [30]: 0.17%; viability, T/C [35]: 0.24% |
